Measurements taken from patent publication US6461613B2, “Methods and compositions for the selective regulation of chorionic prostanoids” (priority 1993, dated 2002).

What was measured:
Type in all cases: cell-based
human term placenta [1] = assay: Effect of enzyme inhibitors on prostanoid release from perifused human term placental explants (RIA); conditions: quinacrine 10 μM; for effect on PGFM release vs control / effect on TxB2 release vs control: EDTA 1 mM in perifusion medium; for effect on 6-keto-PGF1α release vs control / effect on PGE release vs control: EDTA 1 mM, NDGA 10 μM in perifusion medium
Procedure: Radioimmunoassays were performed in a fashion similar to what has been previously described (Siler-Khodr et al., 1986, Biol. Reprod., 35:312) which is specifically incorporated herein for this purpose, with specific exception as noted below. A perifusion model (described in Examples 2 and 3) was employed to determine placental cell response. Media collected from the perifusion samples prepared from placental tissues were assayed. […] All the samples from a given perifusion (placenta) were determined in the same assay. At the beginning of the fifth hour of the perifusion, Medium 199 in the experimental chambers was changed to Medium 199 containing quinacrine (10 μM), EDTA (1 mM), NDGA (10 μM) or indomethacin (50 μg/ml). Four replicated chambers were perifused with control medium and each of the experimental media. This experimental design was repeated in three different perifusions using placental tissues from three different patients according to the procedure described in Example 3. […] Term placentas were obtained and placed on ice immediately after vaginal delivery from patients having spontaneous labor and delivery without any known obstetrical or medical complications. Tissues were obtained in accordance with a protocol approved by the Institutional Review Board. Within 30 minutes, the placental tissues were dissected of decidua, chorionic plates and large fetal vessels on ice. The placental tissues were cut into small fragments (approximately 25 pieces having a total weight of approximately 1 g), rinsed free of blood by repeated washing with ice cold normal saline until clear in color, and the tissue fragments placed in a 3-ml tissue chamber, placed in a 37° C. water bath. […] This medium is hereafter referred to as Medium 199. […] Perifusion was performed for two hours prior to initiation of sample collection. In this fashion, all tissues were thoroughly washed and equilibrated. Samples were collected hourly, beginning at the start of the third hour, into 12×75 mm glass tubes containing 0.1 ml indomethacin and 1100 μg/ml dimethyl sulfoxide [DMSO]. It took approximately one hour for the input medium to pass through the perifusion tubing and chamber and to be collected in the sample tube, thus the dead volume of the system was approximately 1 ml. Collection of the effluent of the 20 chambers was done simultaneously, using an ISCO fraction collector Retriever III adapted with a 20-tube rack and manifold. The prostanoid release for a given chamber was expressed as the increase over the fourth-hour prostanoid release for that chamber. Because there may be differences in the amounts of blood vessels and connective tissue among placental explants, the release expressed per unit weight results in high variance between chambers. […] Thus, the release of each chamber was related to its functional competence at the time of treatment rather than its mass. The mean release for replicate chambers from a given placenta for each particular prostanoid in the presence of arachidonic acid or each of the various enzyme inhibitors was calculated and then the mean data for each of the three different placentas was averaged at each time point. Thus, each placenta was weighted equally in the statistical analyses. Two-way analysis of variance of the average response for each prostanoid for each dose of arachidonic acid or each enzyme inhibitor studied, at each time point, was performed. The normalized data were tested for homogeneity using Cohrna's Q test, and no significant deviation was found. Thus, for each prostanoid and each treatment, where there was a significant main effect or interaction, Dunnett's comparison test was applied to determine the point(s) of significant difference as compared to the control. P<0.05 was considered to be statistically significant.

human term placenta [2] = assay: Effect of arachidonic acid on prostanoid release from perifused human term placental explants
Procedure: Radioimmunoassays were performed in a fashion similar to what has been previously described (Siler-Khodr et al., 1986, Biol. Reprod., 35:312) which is specifically incorporated herein for this purpose, with specific exception as noted below. A perifusion model (described in Examples 2 and 3) was employed to determine placental cell response. Media collected from the perifusion samples prepared from placental tissues were assayed. After an initial pilot study of the prostanoid release of each of the perifusion placental tissue media samples collected hourly, samples from hours 3, 4, 5, 6, 8 and 12 of the perifusion were chosen for assay and for data analysis. All the samples from a given perifusion (placenta) were determined in the same assay.
The effect of exogenous arachidonic acid on basal prostanoid release was studied by perifusing placental tissue from the beginning of the fifth hour of the perifusion, with Medium 199 containing arachidonic acid (0.2, 1.0 or 10 μg/ml). Arachidonic acid was dissolved in ethanol such that 0.02 ml ethanol per 100 ml of Medium 199 was needed to obtain these concentrations, and the resulting ethanol concentration was 0.02%. The control medium was also made to be 0.02% ethanol for valid comparison of the arachidonic acid parameter only. Four replicated chambers were perifused with control medium and each of the experimental arachidonic acid media. This experimental design was repeated using placental tissues from three different patients.
Briefly, term placenta were obtained and placed on ice immediately after vaginal delivery from patients having spontaneous labor and delivery without any known obstetrical or medical complications. Tissues were obtained in accordance with a protocol approved by the Institutional Review Board. Within 30 minutes, the placental tissues were dissected of decidua, chorionic plates and large fetal vessels on ice. The placental tissues were cut into small fragments (approximately 25 pieces having a total weight of approximately 1 g), rinsed free of blood by repeated washing with ice cold normal saline until clear in color, and the tissue fragments placed in a 3-ml tissue chamber, placed in a 37° C. water bath. Twenty replicate chambers were prepared and each perifused with Medium 199 containing 0.05% BSA, 100 U penicillin and 100 μg streptomycin per ml at a rate of 1 ml per hour for 12 hours. This medium is hereafter referred to as Medium 199. The influx medium was aerated with 95% air and 5% CO2 throughout the perifusion. Perifusion was performed for two hours prior to initiation of sample collection. In this fashion, all tissues were thoroughly washed and equilibrated. Samples were collected hourly, beginning at the start of the third hour, into 12×75 mm glass tubes containing 0.1 ml indomethacin and 1100 μg/ml dimethyl sulfoxide [DMSO]. It took approximately one hour for the input medium to pass through the perifusion tubing and chamber and to be collected in the sample tube, thus the dead volume of the system was approximately 1 ml. Collection of the effluent of the 20 chambers was done simultaneously, using an ISCO fraction collector Retriever III adapted with a 20-tube rack and manifold.
The prostanoid release for a given chamber was expressed as the increase over the fourth-hour prostanoid release for that chamber. Because there may be differences in the amounts of blood vessels and connective tissue among placental explants, the release expressed per unit weight results in high variance between chambers. […] Thus, the release of each chamber was related to its functional competence at the time of treatment rather than its mass.
The mean release for replicate chambers from a given placenta for each particular prostanoid in the presence of arachidonic acid or each of the various enzyme inhibitors was calculated and then the mean data for each of the three different placentas was averaged at each time point. […]

human term placenta [3] = assay: Dose-related action of IGF-I on basal prostanoid production from perifused human term placenta
Procedure: The dose-related effect of IGF-I on placental prostanoids was studied with the perifusion system previously described herein. Normal term deliveries were perifused with a defined Medium 199 containing no phenol red nor exogenous hormonal factors other than 100μU/ml of insulin, estradiol (200 ng/ml), progesterone (4000 ng/ml) and dexamethasone (10^−8). These doses were chosen to emulate the normal term placental environment. Replicate chambers for the control (n=4) and treatment (n=3) explants for each placenta were made. Following a five-hour perifusion at 6 ml/hr with basal media, IGF-I (5, 10, 20, 40 or 80 ng/ml) was added to the triplicate chambers and sample collection continued every 30 minutes for another five hours. The average hormonal response for the replicate chambers of the control and the IGF-I treated explants was calculated and then the mean (±SEM) response for the different placentas with and without treatment was computed and the results compared. […] TxB2 was inhibited at even 10 ng/ml of IGF-I.

human term placenta [4] = assay: IGF-I effect on prostanoid and hCG release from perifused human term placental explants
Procedure: Term placentas were obtained and processed as described herein. Seven replicate chambers were prepared and each perifused with Medium 199 containing 0.05% BSA, penicillin (100 U/ml), streptomycin (100 μg/ml), estradiol (200 ng/ml), progesterone (2000 ng/ml), dexamethasone (10^−8 M), and insulin (100 μU/ml), at a rate of 6 ml/hour for 10.5 hours. Steroids were first dissolved in ethanol at 10^−4M final concentration and taken to final dilution with BSA-containing medium. This medium is hereafter referred to as Medium 199. These concentrations of steroid were chosen because they are known by those in the obstetrical arts to simulate the intrauterine milieu in vivo in humans. The influx medium was aerated with 95% air and 5% CO2 throughout the perifusion. Perifusion at a rate of 6 ml/hr was performed for […] prior to initiation of sample collection. In this fashion, all tissues were thoroughly washed and equilibrated. Samples were collected every half-hour, beginning at the start of the fourth hour, into 12×75 mm glass tubes containing 0.1 ml indomethacin (1100 μg/ml dimethyl sulfoxide [DMSO]). Collection of the effluent of the seven chambers was done simultaneously, using an ISCO fraction collector Retriever III adapted with a rack having seven tubes and a manifold.
To study the effect of IGF-I on basal prostanoid release, ten minutes prior to the beginning of the fifth hour of the perifusion, Medium 199 in the experimental chambers was changed to Medium 199 containing IGF-I (10^−8 M). This dose of IGF-I was chosen from calculations of the inventor using the Km of the placental receptor for IGF-I. It took ten minutes for the input medium to pass through the perifusion tubing and chamber and to be collected in the sample tube. Three replicated chambers were perifused with experimental medium, whereas, in another four replicated chambers, the perifusion was continued with the control, Medium 199. This experimental design was repeated using placental tissues from three different patients each having a normal pregnancy.
Prostanoid recovery and stability was determined as described in Example 1. Prostanoid radioimmunoassay was also conducted as described in Example 1.
Hormonal values for a given chamber were normalized to the fifth-hour prostanoid or hCG release for that chamber, expressed as a percent release over the fifth-hour release. Because there may be differences in the amount of blood vessels and connective tissue among placental explants, the release expressed per unit weight results in high variance between chambers. […] Thus, the release of each chamber was related to its functional competence at the time of treatment rather than to its mass. The mean release for replicate chambers from a given placenta for each particular hormone in the presence of IGF-I at each time point was calculated and the mean data for each of the three different placentas were averaged at each time point. Thus, each placenta was weighed equally in the statistical analyses. Similar calculations were done for the controls as for the experimental chambers. For each hormone studied, these average normalized data were tested for homogeneity, using Bartlett's test, and if significant deviation was found, the data were log-transformed prior to statistical analysis. Two-way analysis of variance was used to determine if there was significant main effect or interaction.
In addition, the cumulative release for each hormone from each placenta for each treatment was calculated. One-way analysis of variance was used to test for statistical effects of treatment. The points of significant variation were determined using the Student-Newman-Keuls test.

[5] = arachidonic acid 10 μg/ml, within three hours of exposure

Compound: O=C(O)CN(CCN(CC(=O)O)CC(=O)O)CC(=O)O [EDTA, ethylene diamino tetraacetic acid]
- effect on PGFM release vs control (human term placenta [1]): did not reduce
- effect on TxB2 release vs control (human term placenta [1]): did not reduce
- effect on 6-keto-PGF1α release vs control (human term placenta [1]): significant inhibition
- effect on PGE release vs control (human term placenta [1]): did not reduce

Compound: CC(Cc1ccc(O)c(O)c1)C(C)Cc1ccc(O)c(O)c1 (centres unmarked) [NDGA, nordihydroguaiaretic acid]
- effect on 6-keto-PGF1α release vs control (human term placenta [1]): significant inhibition
- effect on PGE release vs control (human term placenta [1]): inhibited

Compound: CCCCC/C=C\C/C=C\C/C=C\C/C=C\CCCC(=O)O [arachidonic acid]
- effect on prostanoid production (human term placenta [2]; arachidonic acid 0.2 μg/ml): no significant effect
- effect on prostanoid production (human term placenta [2]; arachidonic acid 1.0 μg/ml): no significant effect
- effect on PGE release (human term placenta [2]; [5]): significant increase
- effect on PGF release (human term placenta [2]; [5]): significant increase
- effect on 6-keto-PGF1α (human term placenta [2]; arachidonic acid 0.2-10 μg/ml): no significant effect
- effect on PGFM (human term placenta [2]; arachidonic acid 0.2-10 μg/ml): no significant effect
- effect on TxB2 (human term placenta [2]; arachidonic acid 0.2-10 μg/ml): no significant effect

Compound: CCN(CC)CCCC(C)Nc1c2ccc(Cl)cc2nc2ccc(OC)cc12 (centres unmarked) [quinacrine]
- effect on PGFM release vs control (human term placenta [1]): no significant effect
- effect on TxB2 release vs control (human term placenta [1]): no significant effect
- effect on 6-keto-PGF1α release vs control (human term placenta [1]): no significant effect
- effect on PGE release vs control (human term placenta [1]): no significant effect
- effect on PGF release vs control (human term placenta [1]; first hour of exposure): significant inhibition

Compound: Insulin like growth factor-I [IGF-I]
- effect on TxB2 (human term placenta [3]; IGF-I 10 ng/ml): inhibited
- effect on PGF production (human term placenta [3]; IGF-I 5-80 ng/ml): greatly reduced
- greatest inhibition of TxB2 production (human term placenta [3]; IGF-I 10^−8 M): 70 % of the basal release
- effect on TxB2 production (human term placenta [3]; IGF-I at each dose (5, 10, 20, 40 or 80 ng/ml)): statistically significant inhibition
- effect on PGE (human term placenta [3]; high dose of IGF-I): small reduction
- molar concentration producing a selective pharmacological affect on human placental tissue (human term placenta [3]; on the order of): ~10^−9 molar
- cumulative release of the other hormones studied (PGE, PGFM, 6-keto-PGF1α, hCG) vs control (human term placenta [4]; IGF-I 10^−8 M): no significant change
- effect on PGE release (human term placenta [4]; IGF-I 10^−8 M): not affected
- effect on release of hCG compared to controls (human term placenta [4]; IGF-I 10^−8 M): did not affect
- hCG release (human term placenta [4]; IGF-I 10^−8 M): 55 % of the fifth-hour release
- PGE release (human term placenta [4]; IGF-I 10^−8 M treated tissues): 228 % of the fifth-hour release
- cumulative release of TxB2 vs control (human term placenta [4]; IGF-I 10^−8 M, P<0.01): significant reduction
- cumulative release of PGF vs control (human term placenta [4]; IGF-I 10^−8 M, P<0.05): significant reduction
- TxB2 release (human term placenta [4]; IGF-I 10^−8 M, by the fifth hour of treatment): 85 % of the control's release
- PGF release (human term placenta [4]; IGF-I 10^−8 M, by the fifth hour of treatment, normalized to fifth-hour release): 116%
- 6-keto-PGF1α release (human term placenta [4]; IGF-I 10^−8 M, during the five hours): 146 % of the fifth-hour release
- effect on PGFM release (human term placenta [4]; IGF-I 10^−8 M, five hours of perifusion): unchanged
- time to significant inhibition of TxB2 release (human term placenta [4]; IGF-I 10^−8 M, following treatment): ≤ 150 min
- effect on release of 6-keto-PGF1α (human term placenta [4]; IGF-I 10^−8 M, more than five hours): not significantly altered
- effect on release of PGF (human term placenta [4]; IGF-I 10^−8 M, significant from the third hour): significantly (P<0.01) inhibited
